Test results taken from US10703756B2, “Pyrrolo[2,3-D]pyrimidinyl, pyrrolo[2,3-B]pyrazinyl, pyrrolo[2,3-B]pyridinyl acrylamides and epoxides thereof” (Pfizer Inc., priority 2015, dated 2020).

Columns and labels:
JAK3 enzyme = biological target: T1, JAK3 enzyme (Homo sapiens, UniProt P52333); experiment: JAK Caliper Enzyme Assay at 1 mM ATP; format: biochemical
T1 sequence (P52333 1-1124): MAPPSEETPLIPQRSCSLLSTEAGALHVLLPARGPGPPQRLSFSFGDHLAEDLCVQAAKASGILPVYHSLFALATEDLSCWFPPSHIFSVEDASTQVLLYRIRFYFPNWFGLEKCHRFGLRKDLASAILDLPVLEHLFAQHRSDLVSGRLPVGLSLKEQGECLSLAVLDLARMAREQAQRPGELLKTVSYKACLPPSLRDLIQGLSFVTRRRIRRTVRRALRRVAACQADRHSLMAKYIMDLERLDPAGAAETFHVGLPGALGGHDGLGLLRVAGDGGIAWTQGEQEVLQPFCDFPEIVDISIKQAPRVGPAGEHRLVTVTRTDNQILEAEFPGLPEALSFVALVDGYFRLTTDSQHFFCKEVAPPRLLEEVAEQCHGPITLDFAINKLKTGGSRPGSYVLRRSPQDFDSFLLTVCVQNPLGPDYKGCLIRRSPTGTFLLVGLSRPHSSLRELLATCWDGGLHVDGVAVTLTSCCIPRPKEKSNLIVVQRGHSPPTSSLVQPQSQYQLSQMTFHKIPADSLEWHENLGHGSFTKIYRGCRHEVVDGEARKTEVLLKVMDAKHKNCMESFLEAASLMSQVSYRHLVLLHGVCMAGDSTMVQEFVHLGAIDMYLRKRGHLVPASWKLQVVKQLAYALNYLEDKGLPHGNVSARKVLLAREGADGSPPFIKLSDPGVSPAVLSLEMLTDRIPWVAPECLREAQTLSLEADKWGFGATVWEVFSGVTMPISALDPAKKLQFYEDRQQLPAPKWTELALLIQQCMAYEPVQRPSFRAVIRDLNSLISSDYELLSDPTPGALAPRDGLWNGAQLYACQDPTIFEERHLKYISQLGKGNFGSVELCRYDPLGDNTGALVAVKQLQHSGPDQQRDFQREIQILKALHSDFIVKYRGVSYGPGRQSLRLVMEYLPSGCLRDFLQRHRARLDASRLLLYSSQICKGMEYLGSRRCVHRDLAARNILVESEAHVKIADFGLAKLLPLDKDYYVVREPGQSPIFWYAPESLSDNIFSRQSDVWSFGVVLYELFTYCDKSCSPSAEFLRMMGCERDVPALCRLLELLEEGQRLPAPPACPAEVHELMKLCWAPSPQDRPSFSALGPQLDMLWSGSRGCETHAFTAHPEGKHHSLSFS
Outline: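 11-pt ½-log cpd titration in DMSO (top 600 μM, pre-assay); enzyme conc/incubation adjusted per prep → 20-30% peptide phosphorylation; phospho vs non-phospho peptide read by chip-based electrophoretic separation.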

[1] = tested on: IL-15 induced P-STAT5 in human PBMC; experiment: PBMC IL-15 Induced P-STAT5; format: cell-based; details: human PBMC, IL-15 final 41 ng/mL; read-out: PBMC IL15_pSTAT5_IC50
Outline: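 Thawed human PBMC, rested in human plasma, were preincubated 15 min at 37 °C with compound (0.2% DMSO), then stimulated 15 min with IL-15 at 41 ng/mL final. After paraformaldehyde fixation and methanol permeabilisation, Alexa Fluor 647 anti-STAT5 staining overnight at 4 °C was analysed by flow cytometry on total lymphocytes.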

Row | Structure (SMILES) | IC50 (JAK3 enzyme) [nM] | IC50 [1] [nM]
1 | C=CC(=O)N1CC[C@H](Nc2cnc3[nH]cc(C(=O)NCCCC(F)(F)F)c3n2)[C@H](OC)C1 [Example 319, 2-{[(3R,4S)-1-acryloyl-3-methoxypiperidin-4-yl]amino}-N-(4,4,4-trifluorobutyl)-5H-pyrrolo[2,3-b]pyrazine-7-carboxamide] | 45 | 211
2 | C=CC(=O)N1CCN(c2cnc3[nH]cc(C(=O)N[C@@H](C)COC)c3n2)CC1 [Example 295, 2-(4-acryloylpiperazin-1-yl)-N-[(2S)-1-methoxypropan-2-yl]-5H-pyrrolo[2,3-b]pyrazine-7-carboxamide] | 29 | 71
3 | C=CC(=O)N1CC(CF)CC(Nc2ncnc3[nH]ccc23)C1 (mixture of isomers) [Example 102, Cis-racemic-1-[3-(fluoromethyl-5-(7H-pyrrolo[2,3-d]pyrimidin-4-ylamino)piperidin-1-yl]prop-2-en-1-one] | 142 | 237
4 | C=CC(=O)N1CCC(Oc2cnc3[nH]cc(C(=O)N[C@@H](C)CC)c3n2)CC1 [Example 205, 2-[(1-acryloylpiperidin-4-yl)oxy]-N-[(2S)-butan-2-yl]-5H-pyrrolo[2,3-b]pyrazine-7-carboxamide] | 16 | 92.3
5 | C=CC(=O)N1CC[C@@H](Nc2cnc3[nH]cc(C(=O)N[C@H](C)COC)c3n2)[C@@H](OC)C1 [Example 331, 2-{[(3S,4R)-1-acryloyl-3-methoxypiperidin-4-yl]amino}-N-[(2R)-1-methoxypropan-2-yl]-5H-pyrrolo[2,3-b]pyrazine-7-carboxamide] | 42 | 288
6 | C=CC(=O)N1CC[C@@H](Oc2cnc3[nH]cc(C(=O)NCC)c3n2)[C@H](C)C1 (single isomer, unassigned) [Example 47] | 87 | 363
7 | C=CC(=O)N1CCC(Nc2cnc3[nH]cc(C(=O)NCc4ccc(F)c(C#N)c4)c3n2)CC1 [Example 189, 2-[(1-acryloylpiperidin-4-yl)amino]-N-(3-cyano-4-fluorobenzyl)-5H-pyrrolo[2,3-b]pyrazine-7-carboxamide] | 6 | 203
8 | C=CC(=O)N1CCC(Oc2cnc3[nH]cc(C(=O)N[C@@H]4CCC[C@H]4F)c3n2)CC1 [Example 229, 2-[(1-acryloylpiperidin-4-yl)oxy]-N-[(1R,2R)-2-fluorocyclopentyl]-5H-pyrrolo[2,3-b]pyrazine-7-carboxamide] | 60 | 221
9 | C=CC(=O)N1CCC(C)(Nc2cnc3[nH]cc(C(=O)NC4CCC4)c3n2)CC1 [Example 324, 2-[(1-acryloyl-4-methylpiperidin-4-yl)amino]-N-cyclobutyl-5H-pyrrolo[2,3-b]pyrazine-7-carboxamide] | 21 | 203
10 | C=CC(=O)N1CCC(Oc2cnc3[nH]cc(C(=O)NC4CCCC4(F)F)c3n2)CC1 (stereo not drawn) [Example 219, 2-[(1-acryloylpiperidin-4-yl)oxy]-N-(2,2-difluorocyclopentyl)-5H-pyrrolo[2,3-b)pyrazine-7-carboxamide] | 25 | 134
11 | C=CC(=O)N1CC[C@H](Nc2cnc3[nH]cc(C(=O)NCC(F)(F)F)c3n2)[C@H](OC)C1 [Example 293, 2-{[(3R,4S)-1-acryloyl-3-methoxypiperidin-4-yl]amino}-N-(2,2,2-trifluoroethyl)-5H-pyrrolo[2,3-b]pyrazine-7-carboxamide] | 51 | 218
12 | C=CC(=O)N1CCN(c2cnc3[nH]cc(C(=O)NCC(C)C)c3n2)C[C@@H]1CC(C)C [Example 288, 2-[(3S)-4-acryloyl-3-(2-methylpropyl)piperazin-1-yl]-N-(2-methylpropyl)-5H-pyrrolo[2,3-b]pyrazine-7-carboxamide] | 57 | 151
13 | C=CC(=O)N1CCC(Oc2cnc3[nH]cc(C(=O)NC45CC(C4)C5)c3n2)CC1 [Example 200, 2-[(1-acryloylpiperidin-4-yl)oxy]-N-(bicyclo[1.1.1]pent-1-yl)-5H-pyrrolo[2,3-b]pyrazine-7-carboxamide] | 46 | 149
14 | C=CC(=O)N1CCC(Oc2cnc3[nH]cc(C(=O)N[C@H](C)COC)c3n2)CC1 [Example 214, 2-[(1-acryloylpiperidin-4-yl)oxy]-N-[(2R)-1-methoxypropan-2-yl]-5H-pyrrolo[2,3-b]pyrazine-7-carboxamide] | 20 | 56.9
15 | C=CC(=O)N1CC[C@@H](Oc2cnc3[nH]cc(C(=O)N[C@@H](C)COC)c3n2)C[C@@H]1C (racemic) [Example 71, Trans-racemic-2-{[1-acryloyl-2-methylpiperidin-4-yl]oxy}-N-[(2S)-1-methoxypropan-2-yl]-5H-pyrrolo[2,3-b]pyrazine-7-carboxamide] | 54 | 260
16 | C=CC(=O)N1CCC(N(C)c2cnc3[nH]cc(C(=O)NC(C)C)c3n2)CC1 [Example 64, 2-[(1-acryloylpiperidin-4-yl)(methyl)amino]-N-(propan-2-yl)-5H-pyrrolo[2,3-b]pyrazine-7-carboxamide] | 50 | 228
17 | C=CC(=O)N1CCN(c2cnc3[nH]cc(C(=O)N[C@H](C)COC)c3n2)CC1 [Example 332] | 22 | 87.7
18 | C=CC(=O)N1CCC(Nc2cnc3[nH]cc(C(=O)NCCC4CC4)c3n2)CC1 [Example 178, 2-[(1-acryloylpiperidin-4-yl)amino]-N-(2-cyclopropylethyl)-5H-pyrrolo[2,3-b]pyrazine-7-carboxamide] | 6 | 88.6
19 | C=CC(=O)N1C[C@H](Nc2ncnc3[nH]ccc23)CC[C@@H]1CNC(C)=O (racemic) [Example 88, rac-N-(((2R,5R)-5-((7H-pyrrolo[2,3-d]pyrimidin-4-yl)amino)-1-acryloylpiperidin-2-yl)methyl)acetamide] | 137 | 3450
20 | C=CC(=O)N1CCN(c2cnc3[nH]cc(C(=O)N[C@H](C)COC)c3n2)CC1(C)C [Example 327] | 56 | 261
21 | C=CC(=O)N1CCC(Nc2cnc3[nH]cc(C(=O)NCc4ccccc4F)c3n2)CC1 [Example 196, 2-[(1-acryloylpiperidin-4-yl)amino]-N-(2-fluorobenzyl)-5H-pyrrolo[2,3-b]pyrazine-7-carboxamide] | 5 | 54.7
22 | C=CC(=O)N1CCC(Oc2cnc3[nH]cc(C(=O)N[C@@H]4CCC[C@@H]4F)c3n2)CC1 [Example 230, 2-[(1-acryloylpiperidin-4-yl)oxy]-N-[(1R,2S)-2-fluorocyclopentyl]-5H-pyrrolo[2,3-b]pyrazine-7-carboxamide] | 34 | 155
23 | C=CC(=O)N1CC[C@@H](Nc2cnc3[nH]cc(C(=O)NCC)c3n2)[C@H](C)C1 (single isomer, unassigned) [Example 44] | 47 | 315
24 | C=CC(=O)N1CCC(Nc2cnc3[nH]cc(C(=O)NCC4CC4)c3n2)CC1 [Example 172, 2-[(1-acryloylpiperidin-4-yl)amino]-N-(cyclopropylmethyl)-5H-pyrrolo[2,3-b]pyrazine-7-carboxamide] | 5 | 81.3
25 | C=CC(=O)N1CC[C@@H](Nc2cnc3[nH]cc(C(=O)NCC(C)(F)F)c3n2)[C@@H](OC)C1 [Example 321, 2-{[(3S,4R)-1-acryloyl-3-methoxypiperidin-4-yl]amino}-N-(2,2-difluoropropyl)-5H-pyrrolo[2,3-b]pyrazine-7-carboxamide] | 46 | 310
26 | C=CC(=O)N1CCC(Oc2cnc3[nH]cc(C(=O)NC4CCCC4)c3n2)CC1 (racemic) [Example 204, Racemic-2-[(1-acryloylpiperidin-4-yl)oxy]-N-cyclopentyl-5H-pyrrolo[2,3-b]pyrazine-7-carboxamide] | 49 | 130
27 | C=CC(=O)N1C[C@@H](CC#N)C[C@@H](Nc2ncnc3[nH]ccc23)C1 (single isomer, unassigned) [Example 106] | 25 | 192
